Test results: patent US20130078203A1, “CAROTENOID SUNSCREEN” (Promar AS, priority 2010, published 2013)
“And” between values parts separate entries of the source, which are not always exact repeats. Identical values can stand only once. Like-named read-outs stand apart in the source and are kept apart here.

Experiments:
[1] = UV/VIS absorption maxima by HPLC with diode array detector; format: physicochemical; conditions: carotenoids dissolved in MeOH, HPLC on Zorbax C18 column
Experimental: LC-MS analyses were performed on an Agilent Ion Trap SL mass spectrometer equipped with an Agilent 1100 series HPLC system. The HPLC system was equipped with a diode array detector (DAD) which recorded UV/VIS spectra in the range from 200-650 nm. Two HPLC protocols were used for the analysis in this work. A high throughput protocol for a fast quantitative determination of known carotenoids was used as follows; the carotenoids were eluted isocratically in MeOH for 5 min. A Zorbax rapid resolution SB RP C18 column with dimension 2.1*30 mm was used for the analyses. Column flow was kept at 0.4 mL/min and 10 μL extract was injected for each run. For detailed qualitative carotenoid separation a Zorbax SB RP C18 with dimension 2.1*150 mm was used. The carotenoids were eluted isocratically in MeOH/Acetonitrile (7:3) for 25 minutes. The column flow was 250 μl/min and 10 or 20 μL sample was injected depending on the concentration.

[2] = In vitro skin model irradiation absorption (integrating sphere transmission spectra, Vitro-skin); format: physicochemical; conditions: for absorption in the 375-490 nm range: Vitro-skin skin model; for absorption in the 375-490 nm range / effect of prolonged contact with the skin model on absorption: FIGS. 7A-C; for effect of prolonged contact with the skin model on absorption: 10, 15 or 20 minutes on Vitro-skin
Experimental: The in vitro method of Springsteen was used (Springsteen et al., 1999, Analytica Chimica Acta, 380, p 155-164). Vitro-skin was used as the skin simulator and Miglyol (Miglyol 812F Neutraloel CHG.040906) or ethyl lactate (Sigma Aldrich) was used as the solvent. The tests were performed with a Varian Cary 300 Conc UV-Visible Spectrophotometer (with an integrating sphere). Sarcinaxanthin (prepared as described in Example 2) and the other carotenoids (Sigma Aldrich) were tested at various concentrations and immediately on application to the skin model or 10-20 minutes post-application.
FIGS. 7A-C show the irradiation absorption achieved by β-carotene (A), sarcinaxanthin (B) and zeaxanthin (C) at the concentrations indicated. The presented graphs also show the effects of the diluent on sarcinaxanthin absorption (FIG. 7B) and the effect of prolonged contact with the skin at 10, 15 or 20 minutes as indicated on the Figures. The results were compared to a conventional SPF 60 sun lotion and the use of diluent alone.

[3] = side-by-side comparison, ethyl lactate as diluent, immediately vs after 15 minutes, FIGS. 8A and B

Compound	λmax (nm) in the HPLC eluent [1]	absorption in the 375-490 nm range [2]	stability of absorption after 15 minutes on the skin model [2, 3]	stability of absorption after 15 minutes on the skin model [2]	effect of prolonged contact with the skin model on absorption [2]
CC1=CCC(C/C=C(\C)CO)C(C)(C)C1/C=C/C(C)=C/C=C/C(C)=C/C=C/C=C(C)/C=C/C=C(C)/C=C/C1C(C)=CCC(C/C=C(\C)CO)C1(C)C (stereo not shown) [Decaprenoxanthin]	414 nm and 438 nm and 467 nm				
C=C1CCC(C/C=C(\C)CO[C@@H]2O[C@H](CO)[C@@H](O)[C@H](O)[C@H]2O)C(C)(C)C1/C=C/C(C)=C/C=C/C(C)=C/C=C/C=C(C)/C=C/C=C(C)/C=C/C1C(=C)CCC(C/C=C(\C)CO[C@@H]2O[C@H](CO)[C@@H](O)[C@H](O)[C@H]2O)C1(C)C (stereo partly shown) [Sarcinaxanthin diglucoside]	414 nm and 438 nm and 467 nm				
C=C1CC[C@H](C/C=C(\C)CO)C(C)(C)[C@@H]1/C=C/C(C)=C/C=C/C(C)=C/C=C/C=C(C)/C=C/C=C(C)/C=C/[C@@H]1C(=C)CC[C@H](C/C=C(\C)CO[C@@H]2O[C@H](CO)[C@@H](O)[C@H](O)[C@H]2O)C1(C)C [Sarcinaxanthin monoglucoside]	414 nm and 438 nm and 467 nm				
C=C1CC[C@H](C/C=C(\C)CO)C(C)(C)[C@@H]1/C=C/C(C)=C/C=C/C(C)=C/C=C/C=C(C)/C=C/C=C(C)/C=C/[C@@H]1C(=C)CC[C@H](C/C=C(\C)CO)C1(C)C [sarcinaxanthin]	414 nm and 438 nm and 467 nm	strong absorption	absorption appears unaffected by the prolonged contact		
CC1=C(/C=C/C(C)=C/C=C/C(C)=C/C=C/C=C(C)/C=C/C=C(C)/C=C/C2=C(C)C[C@@H](O)CC2(C)C)C(C)(C)C[C@H](O)C1 [zeaxanthin]		only modest absorption		unstable and lose most of their absorption properties in the relevant range	loss of absorption
CC1=C(/C=C/C(C)=C/C=C/C(C)=C/C=C/C=C(C)/C=C/C=C(C)/C=C/C2=C(C)CCCC2(C)C)C(C)(C)CCC1 [β-carotene]		only modest absorption	unstable and lose most of their absorption properties in the relevant range		loss of absorption
Lycopene	445 nm and 470 nm and 501 nm				
